# Where two headings read alike, the source gives them in different places.
# What was measured:
# [1] = cited from earlier work
# [2] = Effect of fluorochemical lipophilicity on pharmaceutical solubility (Example 7); type: physicochemical
# Protocol: Pharmaceutical fluorochemical solutions were prepared as follows: […]
# [3] = Solubility in perfluorooctyl ethane (Example 6); type: physicochemical; conditions: organic solvent or mixture; saturated in n-C8F17C2H5; read-out: g/L in C8F17C2H5
# Protocol: A pharmaceutical fluorochemical solution was prepared as follows:
# An aliquot of n-C8 F17 C2 H5 (2 mL; F-Tech, Inc.) was saturated with "Drug" (Sigma Chemical Co.).
# [4] = in vivo, cited from earlier work
# [5] = Solubility of prednisone in fluorocarbons (Example 5); type: physicochemical; conditions: organic solvent or mixture, read-out: mg/L of prednisone in fluorochemical matrix
# Protocol: A prednisone containing perfluorochemical solution was prepared as follows:
# The column was a 25 cm amino column (Rainin), and the detection was carried out by a UV detector (Beckman System Gold) at the end of the column.
# [6] = octanol/pH 7.4 isotonic phosphate buffer at 37° C.
structure (smiles),measurement,setting,value
CCCCN1CCCCC1C(=O)Nc1c(C)cccc1C (stereo not shown) [bupivacaine],Octanol/water partition coefficient Po/w,[1]; octanol/water,28.2
OC(CCN1CCCCC1)(c1ccccc1)C1CCCCC1 (stereo not shown) [trihexyphenidyl],Log Po/w,"[1]; octanol/water, pH 7.4",3.17
same,Octanol/water partition coefficient Po/w,"[1]; octanol/water, pH 7.4",1.47 × 10^3
c1ccc2ccccc2c1 [Naphthalene],solubility,"[2]; organic solvent or mixture, in C6F13C2H5, read-out: Naphthalene",12000 µg/mL
same,solubility,"[2]; organic solvent or mixture, in C6F13C6H13, read-out: Naphthalene",30000 µg/mL
same,solubility,"[2]; organic solvent or mixture, in C6F13C8H17, read-out: Naphthalene",40000 µg/mL
same,solubility,"[2]; organic solvent or mixture, in C8F17C2H5, read-out: Naphthalene",8000 µg/mL
same,solubility,"[2]; organic solvent or mixture, in C8F17C4H9, read-out: Naphthalene",14000 µg/mL
same,solubility,"[2]; organic solvent or mixture, in C8F17C6H13, read-out: Naphthalene",23000 µg/mL
same,solubility,[3],8.1 g/L
same,log Po/w,"[1]; Example 6, source not stated",3.387
CN(C)CCCN1c2ccccc2CCc2ccc(Cl)cc21 [clomipramine],Octanol/water partition coefficient Po/w,"[1]; octanol/water, pH 7.4",3.80 × 10^3
"c1ccc2cc3ccccc3cc2c1 [^14 C-anthracene, anthracene]",Octanol/water partition coefficient Po/w,[1]; octanol/water,3.16 × 10^4
CCc1ccccc1O [o-Ethylphenol],solubility,[3],9.4 g/L
Cc1ccc(O)cc1 [p-Cresol],solubility,[3],3.9 g/L
same,log Po/w,"[1]; Example 6, source not stated",1.9
"CC(=O)[C@H]1CC[C@H]2[C@@H]3CCC4=CC(=O)CC[C@]4(C)[C@H]3CC[C@]12C [^14 C-progesterone, progesterone]",Octanol/water partition coefficient Po/w,[1]; octanol/water,7.9 × 10^3
CCCCCCc1ccccc1 [Hexylbenzene],solubility,[3],67.1 g/L
same,log Po/w,[1]; octanol/water,5.52
CCc1cc2c(s1)N(C)C(=O)CN=C2c1ccccc1Cl [clotiazepam],Log Po/w,[1]; [6],3.49
same,Octanol/water partition coefficient Po/w,[1]; [6],3.06 × 10^3
"CC/C(=C(/CC)c1ccc(O)cc1)c1ccc(O)cc1 [^3 H -diethylstilbesterol, diethylstilbesterol]",Octanol/water partition coefficient Po/w,[1]; octanol/water,1.26 × 10^5
"c1ccc2cc3cc4ccccc4cc3cc2c1 [2,3 Benzanthracene]",solubility,[3],0.0003 g/L
same,log Po/w,"[1]; Example 6, source not stated",5.807
CCCCC(=O)OCCOCn1cnc2c(=O)[nH]c(N)nc21 [valeryl acyclovir],Log Po/w,[1]; [6],0.30
c1ccc2cc3ccccc3cc2c1 [Antracene],solubility,[3],0.09 g/L
same,log Po/w,"[1]; Example 6, source not stated",4.473
CC(=O)O[C@H]1C(=O)[C@@]2(C)[C@H]([C@H](OC(=O)c3ccccc3)[C@]3(O)C[C@H](OC(=O)[C@H](O)[C@@H](NC(=O)c4ccccc4)c4ccccc4)C(C)=C1C3(C)C)[C@]1(OC(C)=O)CO[C@@H]1C[C@@H]2O [paclitaxel],systemic toxicities,[4]; iv,high systemic toxicities
same,systemic toxicities associated with paclitaxel,[4],cardiac toxicity and neurotoxicity
CC(CN1c2ccccc2Sc2ccccc21)N(C)C (stereo not shown) [promethazine],Log Po/w,[1]; [6],3.10
same,Octanol/water partition coefficient Po/w,[1]; [6],1.27 × 10^3
CCCCCC(=O)OCCOCn1cnc2c(=O)[nH]c(N)nc21 [hexanoyl acyclovir],Log Po/w,[1]; [6],0.93
C[C@]12C=CC(=O)C=C1CC[C@@H]1[C@@H]2C(=O)C[C@@]2(C)[C@H]1CC[C@]2(O)C(=O)CO [prednisone],solubility,"[5]; 1,4-dibromooctafluorobutane with 10% ethanol, in 1,4-Dibromooctafluorobutane with 10% Ethyl Alcohol",1700 mg/L
same,solubility,"[5]; 1,4-dibromooctafluorobutane with 50% ethanol, in 1,4-Dibromooctafluorobutane with 50% Ethyl Alcohol",3800 mg/L
same,solubility,"[5]; n-c6f13c2h5 with 3% ethanol, in n-C6F13C2H5 with 3% Ethyl Alcohol",27 mg/L
same,solubility,"[5]; n-c6f13c6h13 with 3% ethanol, in n-C6F13C6H13 with 3% Ethyl Alcohol",80 mg/L
same,solubility,"[5]; n-c8f17br with 3% ethanol, in n-C8F17Br with 3% Ethyl Alcohol",< 1 mg/L
same,solubility,"[5]; in 1,4-Dibromooctafluorobutane",< 1 mg/L
CC(C)=CCN1CCC2(C)c3cc(O)ccc3CC1C2C (stereo not shown) [pentazocin],Log Po/w,[1]; [6],2.18
same,Octanol/water partition coefficient Po/w,[1]; [6],150
CCCCCCCCCCCCCCCc1cccc(O)c1 [m-Pentadecylphenol],solubility,"[2]; c6f13c2h5, organic solvent or mixture",700 µg/mL
same,solubility,"[2]; c6f13c6h13, organic solvent or mixture",4100 µg/mL
same,solubility,"[2]; c6f13c8h17, organic solvent or mixture",5600 µg/mL
same,solubility,"[2]; c8f17c2h5, organic solvent or mixture",400 µg/mL
same,solubility,"[2]; c8f17c4h9, organic solvent or mixture",600 µg/mL
same,solubility,"[2]; c8f17c6h13, organic solvent or mixture",1700 µg/mL
same,solubility,[3],0.4 g/L
same,log Po/w,[1]; octanol/water,9.53
CCCCc1ccccc1 [Butylbenzene],solubility,[3],116 g/L
same,log Po/w,"[1]; Example 6, source not stated",4
"CCCCCCCCCCCC(=O)N1CCCCCC1 [^14 C-hexamethylene lauramide, hexamethylene lauramide]",Log Po/w,[1]; octanol/water,7.3
same,Octanol/water partition coefficient Po/w,[1]; octanol/water,2.00 × 10^7

# From patent publication US5874481A, “Fluorochemical solutions for the delivery of lipophilic pharmaceutical agents” (priority 1995, dated 1999)
